Laboratory results taken from US5965787A, “HLA-DRBI peptides with specific binding affinity for HLA-DQ molecules: prevention and treatment of rheumatoid arthritis” (Mayo Foundation for Medical Education and Research, priority 1995, dated 1999).

Tested on: lymph node cells from B10.RQB3-DRB1*1502 positive and negative littermates (H-2A^q)
Assay: T cell proliferation assay, lymph node cells of immunized B10.RQB3 mice
Type: cell-based, mouse
Settings: for T cell response of DRB1*1502 transgene positive animals compared with negative littermates / B10.RQB3 controls: mice immunized with 200 μg HII 250-270 in CFA, in vitro HII 250-270 4, 20, 100 μg/ml, PPD 20, LPS 40, Con A 10 μg/ml, FIG. 2

Question: For Concanavalin A [Con A], which “T cell response of DRB1*1502 transgene positive animals compared with negative littermates / B10.RQB3 controls” value is on record?
Answer: Its value is “similar”.

Question: And the “mean cpm of lymph node cells challenged in vitro” value (positive control of the DRB1 peptide proliferation assay)?
Answer: Its value is > 100,000 cpm.

Question: lipopolysaccharide [LPS] was tested. Which “T cell response of DRB1*1502 transgene positive animals compared with negative littermates / B10.RQB3 controls” value did it give?
Answer: The value was “similar”.
